Measured values as given in patent US20130011921A1, “METHOD FOR PRODUCTION OF ARTIFICIAL PLURIPOTENT STEM CELL” (SAITAMA MEDICAL UNIVERSITY, priority 2010, published 2013).
Entries after “also recorded” stand apart in the source; their conditions may differ.

Key:
Nanog-GFP MEF [1] = assay: 2i method timing and combination with nicotinamide, Puro-resistant AP-positive colonies; format: cell-based, mouse
Procedure: Nanog-GFP MEF was subjected to forced expression of 4F(c-Myc) retrovirally. These were seeded on feeder cells on Day 4 after retroviral infection, and cultured in mouse ES cell medium from the following day until replaced with the 2i medium. Culturing in the 2i medium was initiated on (1) Day 5, (2) Day 7, (3) Day 9, (4) Day 11, (5) Day 13, and (6) Day 15 after retroviral infection, and continued until Day 17 after infection. From Day 17 after infection, drug selection by Puro was performed for eight days, and then AP staining was performed. […] Next, in order to compare when the nicotinamide treatment is performed simultaneously with retroviral infection and when it is performed after one day post infection, investigation was performed in accordance with the conditions of Test 5 (1).

human fibroblasts = assay: Induction of human iPS cells in the presence of nicotinamide, AP-positive colonies; format: cell-based
Procedure: For retroviral introduction, retroviral vectors expressing each pluripotency inducer (Oct-3/4, Sox2, KLF4, and c-Myc) were introduced into packaging cells, PLAT-GP cells (Morita S, et al. (2000) Gene Therapy 7:1063-1066). Culture supernatants of PLAT-GP cells were each recovered two days after gene introduction, and filtered through a 0.45 μm cellulose acetate. Polybrene was then added to a final concentration […], an equal amount of each culture supernatant was mixed, and the mixture was added to human fibroblasts for viral infection. These were seeded on feeder cells on Day 6 after retroviral infection (4F (c-Myc): 2.5×10^4; 4F (L-Myc): 5.0×10^4), and cultured in human ES cell medium on the following day (Takahashi K, et al (2007) Cell 131:861-872). Thereafter the medium was exchanged every two days, and cultured until thirty days after infection. Alkaline phosphatase (AP) staining was then performed, and the number of AP-positive colonies was counted. Nicotinamide was added simultaneously with retroviral infection to a final concentration 4 mM, and then added at the same concentration for every medium exchange until Day 6 after infection. The control zone was cultured to thirty days after infection without adding nicotinamide.

Nanog-GFP MEF [2] = assay: Inspection on Day 4 after retroviral infection (colonies, cell count, AP staining, undifferentiated markers); format: cell-based, mouse
Procedure: As a result, iPS cell-like colonies were recognized in the Nam treatment group, but not in the untreated control group. (FIGS. 4 and 5A). Next, in order to investigate the influence of nicotinamide on Day 4 after infection, the number of cells was counted and AP staining was performed. […] Further, as a result of investigating the expression of various undifferentiated markers, it became clear that the expression of undifferentiated markers was increased compared to the non-treatment group due to nicotinamide treatment (data not shown). Accordingly, it became clear that iPS cell induction was already promoted on Day 4 after infection by nicotinamide treatment.

Nanog-GFP MEF [3] = assay: GFP observation of induced mouse iPS cells with a fluorescence microscope; format: cell-based; conditions: 4F (c-Myc)
Procedure: (§1) For retroviral introduction, a retroviral vector expressing each pluripotency inducer (Oct-3/4, Sox2, KLF4, and c-Myc) was introduced into packaging cells, PLAT-E cells (Kitamura T, et al. (2003) Exp Hematol 31:1007-1014). Culture supernatants of PLAT-E cells were each recovered two days after gene introduction, and filtered through a 0.45 μm cellulose acetate. Polybrene was then added to a final concentration […], an equal amount of each culture supernatant was mixed, and the mixture was added to Nanog-GFP MEF (Okita K, Ichisaka T, Yamanaka S. (2007) nature 448:313-317) for viral infection. Nanog-GFP MEF is a cell being a mouse embryonic fibroblast (MEF) to which a BAC was introduced, wherein a GFP-IRES-Puro^r cassette is inserted into the BAC carrying the mouse Nanog gene.

Nanog-GFP MEF [4] = assay: Induction of mouse iPS cells, Puro-resistant AP-positive colonies; format: cell-based
Procedure: as §1
On Day 4 after retroviral infection, these were seeded on STO feeder cells with suppressed proliferation ability from mitomycin C (SIGMA: M4287) treatment (seeded at 2×10^3 cells/ml for cells infected with 4F (c-Myc), 3.5×10^4 cells/ml for 3F), and on the next day cultured in mouse ES cell medium (Nishimoto M, et al. (1999) Mol Cell Biol 19:5453-5465). Thereafter the medium was replaced every two days, replaced with puromycin (Puro)-containing mouse ES cell medium (Puro to a final concentration of […]) on Day 17 after infection, and cultured for eight more days. Alkaline phosphatase (AP) staining was then performed. Nicotinamide was added simultaneously with retroviral infection to a final concentration 4 mM, and then added at the same concentration for every medium exchange.
In order to investigate the optimal treatment time of nicotinamide, nicotinamide was added under each conditions of until Day 24 after retroviral infection (Nam 0-24d), until Day 4 after retroviral infection (Nam 0-4d), and from Day 4 to Day 24 after retroviral infection (Nam 4-24d), and iPS cells were induced by 4F (c-Myc). Experimental method other than the […] treatment time was in accordance with Test 1.
Consequently, resveratrol which activates sirtuin (SIRT1) was added to the medium instead of nicotinamide to investigate the induction effect of iPS cells. Experimental method was in accordance with Test 2, except that resveratrol (Res) was added to the medium to a final concentration 100 μM.

Nanog-GFP MEF [5] = assay: Induction of mouse iPS cells in the presence of MEK inhibitor and GSK-3 inhibitor (2i method), fluorescence microscope; format: cell-based; conditions: 4F (c-Myc); nicotinamide treatment followed by 2i method; FIGS. 7C and 7D
Procedure: Nanog-GFP MEF was subjected to forced expression of 4F(c-Myc) retrovirally. These were seeded on feeder cells on Day 4 after retroviral infection, and cultured in mouse ES cell medium from the following day. This was replaced with a serum-free mouse ES cell medium comprising PD0325901 (1 μM) and CHIR99021 (3 μM) (2i medium) from Day 12 after infection. […] As the control zone, culturing was also performed in a serum-free mouse ES cell medium without PD0325901 and CHIR99021 from 12 days after infection for four days. It was confirmed that true iPS cells are increased by the 2i method (FIGS. 7A and 7B).

**Q.** With NC(=O)c1cccnc1 [nicotinamide] as the molecule, how does the “proportion of true iPS cells” value (Nanog-GFP MEF [1]; nicotinamide 4 mM Day 0 to Day 4 plus 2i method as Test 5 (1), FIG. 9A) read?
**A.** The value was “significantly increased”.

**Q.** And the “induction efficiency compared to the conventional method” value (Nanog-GFP MEF [1]; nicotinamide treatment combined with 2i method, FIG. 9)?
**A.** The value was “about 10 times”.

**Q.** What about the “induction efficiency, nicotinamide Day 1 to Day 4 relative to Day 0 to Day 4” value (Nanog-GFP MEF [1]; with 2i method as Test 5 (1), FIG. 9B) of the same molecule?
**A.** Its value is “three-fold; also recorded: three times or more”.

**Q.** And the “induction efficiency of iPS cells” value (human fibroblasts; L-Myc as the Myc family gene, 4F (L-Myc), FIG. 10B)?
**A.** Its value is “increased”.

**Q.** And the “induction efficiency of iPS cells” value (human fibroblasts; c-Myc as the Myc family gene, 4F (c-Myc), FIG. 10A)?
**A.** Its value is “increased”.

**Q.** What about the “number of AP-positive colonies” value (human fibroblasts; nicotinamide 4 mM until Day 6, counted thirty days after infection, vs zone without nicotinamide, FIG. 10) of the same molecule?
**A.** Its value is “increased”.

**Q.** And the “number of AP-positive colonies” value (Nanog-GFP MEF [2]; Day 4 after infection, FIG. 5C)?
**A.** The value was “significant increase”.

**Q.** What about the number of cells (Nanog-GFP MEF [2]; Day 4 after infection, vs non-treatment cell group, FIG. 5B) of the same molecule?
**A.** Its number of cells is “increase”.

**Q.** And the “expression of undifferentiated markers” value (Nanog-GFP MEF [2]; Day 4 after infection, vs non-treatment group, data not shown)?
**A.** The value was “increased”.

**Q.** What about the iPS cell-like colonies (Nanog-GFP MEF [2]; Day 4 after retroviral infection, vs untreated control group, FIGS. 4 and 5A) of the same molecule?
**A.** The iPS cell-like colonies was “recognized”.

**Q.** And the “GFP color development vs non-administration group” value (Nanog-GFP MEF [3]; after drug selection by Puro, FIG. 2 lower column)?
**A.** Its value is “more intense color development”.

**Q.** What about the “GFP color development vs nicotinamide-untreated control cells” value (Nanog-GFP MEF [3]; without drug selection by Puro, FIG. 2 upper column) of the same molecule?
**A.** Its value is “slightly more intense color development”.

**Q.** And the “number of Puro-resistant colonies” value (Nanog-GFP MEF [4]; 4F (c-Myc), nicotinamide added Day 0 to Day 4 (Nam 0-4d), FIG. 3)?
**A.** The value was “similarly significantly increased”.

**Q.** What about the “number of Puro-resistant colonies” value (Nanog-GFP MEF [4]; 4F (c-Myc), nicotinamide added Day 0 to Day 24 (Nam 0-24d), FIG. 3) of the same molecule?
**A.** The value was “significantly increased”.

**Q.** What about the “effect of increasing the number of Puro-resistant colonies” value (Nanog-GFP MEF [4]; 4F (c-Myc), nicotinamide added on or after Day 4 (Nam 4-24d), FIG. 3) of the same molecule?
**A.** Its value is “barely obtained”.

**Q.** What about the “increase in induction efficiency (Puro-resistant AP-positive colonies)” value (Nanog-GFP MEF [4]; cells infected with 3F (without c-Myc), nicotinamide 4 mM, FIG. 1C) of the same molecule?
**A.** The value was “not seen”.

**Q.** And the “number of colonies showing resistance to puromycin (Puro-resistant AP-positive colonies)” value (Nanog-GFP MEF [4]; cells infected with 4F (c-Myc), nicotinamide 4 mM from infection, at every medium exchange, FIG. 1A, 1B)?
**A.** The value was “significantly increased”.

**Q.** And the “true iPS cells” value (Nanog-GFP MEF [5])?
**A.** Its value is “dramatic increase”.

**Q.** For Oc1ccc(C=Cc2cc(O)cc(O)c2)cc1 [resveratrol], which “number of Puro-resistant colonies” value (Nanog-GFP MEF [4]; 4F (c-Myc), resveratrol 100 μM added Day 0 to Day 4, vs DMSO control, FIG. 6) is on record?
**A.** Its value is “significantly decreased”.

**Q.** What about the “number of Puro-resistant colonies” value (Nanog-GFP MEF [4]; 4F (c-Myc), resveratrol 100 μM added Day 0 to Day 17, vs DMSO control, FIG. 6) of the same molecule?
**A.** Its value is “significantly decreased”.

**Q.** What about the “number of Puro-resistant colonies” value (Nanog-GFP MEF [4]; 4F (c-Myc), resveratrol 100 μM added on Day 4 after introduction, FIG. 6) of the same molecule?
**A.** The value was “relatively large number”.
